# How the values were obtained:
# Assay in all cases: relative viability (nuclei count vs DMSO), 5 days (fraction); higher = more cells survive
# [1] = compound: NCC(=O)Nc1ccc(-n2nc(C(F)(F)F)cc2-c2ccc3c(ccc4ccccc43)c2)cc1 + COc1cc2c(Oc3ccc(NC(=O)C4(C(=O)Nc5ccc(F)cc5)CC4)cc3F)ccnc2cc1OCCCN1CCOCC1 [Foretinib] (partner 0.25 µM)
# Procedure, shortened: (§1)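 Lung cancer cell lines were seeded in 1536-well plates and dosed by pin tool the next day, with either a single drug or a fixed anchor-drug dose combined with five library-drug doses (not always all listed) spaced in √10 steps. Five days later, one step fixed the cells and stained their nuclei (final 0.05% Triton X-100, 1% formaldehyde, 1 ug/ml Hoechst), and nuclei were counted on 4× images. Relative viability is the nuclei count in treated wells divided by the count in vehicle wells, and each value is the median of duplicate plates.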
# [2] = compound: C1CSC2=C(C(=O)N1)SC3=C2C=C(C=C3)O [kb NB 142-70] + Nc1nc2[nH]cc(CCc3ccc(C(=O)N[C@@H](CCC(=O)O)C(=O)O)cc3)c2c(=O)[nH]1 [Pemetrexed] (partner 0.2 µM)
# Procedure, shortened: as §1
# [3] = compound: NCC(=O)Nc1ccc(-n2nc(C(F)(F)F)cc2-c2ccc3c(ccc4ccccc43)c2)cc1 + Nc1nc2[nH]cc(CCc3ccc(C(=O)N[C@@H](CCC(=O)O)C(=O)O)cc3)c2c(=O)[nH]1 [Pemetrexed] (partner 0.2 µM)
# Procedure, shortened: as §1
# [4] = compound: NCC(=O)Nc1ccc(-n2nc(C(F)(F)F)cc2-c2ccc3c(ccc4ccccc43)c2)cc1 + Cc1cc(Nc2cc(N3CCN(C)CC3)nc(Sc3ccc(NC(=O)C4CC4)cc3)n2)n[nH]1 [Tozasertib] (partner 0.1 µM)
# Procedure, shortened: as §1
Cell Line,relative viability ([1]; first compound 0.02 µM),relative viability ([1]; first compound 0.06325 µM),relative viability ([1]; first compound 0.2 µM),relative viability ([1]; first compound 0.6325 µM),relative viability ([1]; first compound 2 µM),relative viability ([2]; first compound 0.1 µM),relative viability ([2]; first compound 1 µM),relative viability ([2]; first compound 3.162 µM),relative viability ([3]; first compound 0.02 µM),relative viability ([3]; first compound 0.06325 µM),relative viability ([3]; first compound 0.2 µM),relative viability ([3]; first compound 0.6325 µM),relative viability ([3]; first compound 2 µM),relative viability ([4]; first compound 0.02 µM),relative viability ([4]; first compound 0.06325 µM),relative viability ([4]; first compound 0.2 µM),relative viability ([4]; first compound 0.6325 µM),relative viability ([4]; first compound 2 µM)
SK-MES-1,0.955,0.896,0.995,0.959,1.06,1,1.11,0.548,0.911,0.919,1.05,0.85,1.08,0.939,1,0.914,0.866,0.856
SW 1573,0.986,0.867,0.87,0.895,0.905,0.81,0.744,0.36,0.847,0.805,0.81,0.796,0.75,0.244,0.15,0.272,0.228,0.182
NCI-H661,0.985,0.985,1.04,0.974,1.07,0.967,0.867,0.856,0.882,0.954,0.929,0.915,0.907,0.37,0.343,0.356,0.362,0.341
PC-3 [JPC-3],1.08,1.1,1.12,1.08,1.16,1.11,1,0.559,1.2,1.24,1.08,1.2,1.18,0.9,0.889,0.976,0.971,0.828
NCI-H1623,1.02,0.935,0.77,0.84,0.923,–,–,–,–,–,–,–,–,0.407,0.429,0.464,0.396,0.488
Calu-6,0.843,0.87,0.857,0.896,0.891,–,–,–,–,–,–,–,–,–,–,–,–,–
LC-2-ad,0.93,0.998,0.891,0.954,0.984,0.275,0.23,0.295,0.28,0.265,0.292,0.307,0.281,0.399,0.546,0.486,0.469,0.42
CAL-12T,1.28,1.29,1.15,1.14,1.12,1.11,1.34,1.27,1.11,1.2,1.2,1.12,0.97,0.304,0.368,0.344,0.334,0.277
RERF-LC-KJ,0.963,1.06,0.927,0.466,0.851,0.461,0.477,0.417,0.493,0.402,0.462,0.447,0.466,0.449,0.548,0.555,0.552,0.403
NCI-H1650,1.42,1.25,–,1.43,1.19,0.315,0.419,0.481,0.399,0.423,0.331,0.485,0.38,0.389,0.438,–,0.453,0.347

# Reference: the supplement of paper PMC10307832
